Where two headings read alike, the source gives them in different places.
Tests used:
[1] = Drug interaction study with rifampin (CYP3A4 inducer): plasma PK of i.v. eravacycline and metabolites; type: in vivo, human; conditions: for AUC0–24 / AUC(0-inf) / clearance / half-life / Vd / Cmax: n = 12; for Vd: read-out: Vss; for Cmax: iv
Experimental: Two single-center, open-label studies were conducted to evaluate the effects of itraconazole (CYP3A4 inhibitor) and rifampin (CYP3A4 inducer) on the pharmacokinetics of i.v. eravacycline in healthy subjects.
(ii) Study design. Each study included a 28-day screening period, a 13-day treatment period (19 days for rifampin), and an end-of-study visit 2 weeks after the last dose of study drug. […] For the itraconazole study, 200 mg oral itraconazole was administered q12h on day 8 and q24h on days 9 and 10. For the rifampin study, 600 mg oral rifampin was administered q24h from day 8 to day 17. All study treatments were administered in the fasting state.
(§1) (iii) Study assessments. Blood samples for PK analysis of eravacycline and its metabolites, TP-498, TP-6208, and TP-034, were collected predose and 1, 2, 4, 6, 8, 12, 24, 36, and 48 h after the start of the i.v. infusion on day 1 and day 10 (itraconazole) or day 1 and day 17 (rifampin). Safety assessments included AEs, clinical laboratory safety tests (hematology, serum chemistry, electrolytes, coagulation, urinalysis, and lipid profile), vital signs, physical examinations, and 12-lead ECG.
Concentrations of eravacycline, TP-498, and TP-6208 in human plasma samples were measured by LC-tandem MS after solid-phase extraction over a calibration range of 5.00 to 500 ng/ml. The LLOQ for eravacycline, TP-498, TP-6208, and TP-034 in human plasma was 5.00 ng/ml. Samples with eravacycline initial concentrations above the upper limit of quantification (500 ng/ml) were diluted appropriately with control blank human plasma and reanalyzed. There was no interference seen when human plasma was fortified with eravacycline, TP-498, TP-6208, and either itraconazole or rifampin.
(iv) Pharmacokinetic analysis. PK assessments included Cmax, Tmax, AUC0–24, AUC0–t, t1/2, CL, and Vss. Actual sampling time was used for PK calculations. PK parameters were derived by noncompartmental analysis. Descriptive statistics were calculated for analyte concentrations at each evaluation time point and for all quantitative PK parameters of eravacycline, TP-498, TP-6208, and TP-034 for day 1 and day 10 (day 17 for rifampin). The effect of itraconazole or rifampin on the PK profile of i.v. eravacycline was evaluated by comparing log-transformed PK parameters (Cmax and AUC0–t) associated with the administration of study drug on day 1 and day 10 (itraconazole) or day 1 and day 17 (rifampin) using paired t tests. The ratio and 90% confidence interval (CI) were presented after back transformation to the original scale. Pharmacokinetic variables were calculated using WinNonlin Professional.

[2] = Mass balance study: plasma PK of eravacycline, TP-498 and TP-6208 (LC-MS); type: in vivo, human; conditions: plasma, single i.v. dose of [14C]eravacycline
From the text: (ii) Study design. This was a single-center, open-label study of a single i.v. dose of [^14C]eravacycline to assess the mass balance recovery and PK of eravacycline. The primary objectives were to determine mass balance recovery, determine routes and rates of excretion, provide metabolite profiling and structural identification, and assess the PK of radioactivity in plasma and whole blood. Subjects were screened for inclusion in the study, including a detailed medical history, physical examination, and laboratory evaluations, in the 28 days before dosing. Eligible subjects were admitted to the clinical study unit at approximately 21:00 on the evening prior to study drug administration (day −1) and remained on site until 240 h postdose for collection of urine, feces, and blood samples. After an overnight fast, each subject received 60 mg [^14C]eravacycline containing not more than 3.8 MBq (105 μCi) ^14C as a single i.v. infusion over 60 min.
(vi) Study assessments. PK parameters were determined for total radioactivity in plasma and whole blood. Eravacycline, TP-498, and TP-6208 concentrations in plasma were quantified using a validated assay with internal standards. The following PK parameters were determined: Cmax, Tmax, time from dosing before the first quantifiable concentration in a concentration versus time profile (Tlag), AUC0–t, AUC0–24, AUC0–∞, the percentage of AUC0–∞ extrapolated beyond the time of the last measurable concentration (AUC%extrap), the slope of the apparent terminal phase (lambda-z), the apparent terminal half-life (t1/2), the mean residence time estimated between time zero and infinity (MRT0-∞), the apparent volume of plasma cleared of analyte per unit time (CL), and the volume of distribution of analyte at steady state (Vss).
Plasma concentrations of eravacycline, TP-498, and TP-6208 were measured by liquid chromatography with tandem mass spectrometry (LC-MS). The LLOQ was 5 ng/ml for eravacycline, TP-498, and TP-6208. The calibration ranges for eravacycline, TP-498, and TP-6208 in human urine were 50 to 10,000 ng/ml, 50 to 1,000 ng/ml, and 20 to 1,000 ng/ml, respectively. The calibration ranges for eravacycline, TP-498, and TP-6208 in human plasma were 5 to 500 ng/ml.
(viii) Study analysis. Descriptive statistics (mean, median, standard deviation [SD], percent coefficient of variation [%CV], minimum, maximum, number, geometric mean, and geometric %CV) were calculated for all concentration data. Pharmacokinetic parameters were calculated using Phoenix WinNonlin v6.3 (Certera USA, Inc.).

[3] = Itraconazole drug interaction study: safety/tolerability; type: in vivo, human
Experimental: as §1

[4] = parameters: method as in PMID 30150464; conditions: healthy volunteers, i.v. 1 mg/kg q12h for 10 days; cited from earlier work
[5] = Drug interaction study with rifampin (CYP3A4 inducer): plasma PK of i.v. eravacycline and metabolites; type: in vivo; conditions: human, intravenous, day 17, eravacycline plus rifampin, read-out: AUC0–t (distribution, as worded in the text)
[6] = eravacycline plus rifampin (day 17) vs eravacycline alone (day 1), 1 mg/kg i.v.
[7] = human, plasma, intravenous, 1 mg/kg, day 1, eravacycline alone, mean ± SD
[8] = human, plasma, intravenous, day 17, with rifampin, mean ± SD
[9] = human, iv, 60 mg, geometric mean (%CV), n = 2

SMILES: CN(C)[C@@H]1C(O)=C(C(N)=O)C(=O)[C@@]2(O)C(O)=C3C(=O)c4c(O)c(NC(=O)CN5CCCC5)cc(F)c4C[C@H]3C[C@@H]12 [eravacycline]
- AUC0–24 ([1]; day 1, eravacycline alone, mean ± SD): 4,100 ± 589 h·ng/ml
- AUC0–24 ([1]; day 17, with rifampin, mean ± SD): 3,090 ± 568 h·ng/ml
- decrease of AUC0–24 with coadministration of rifampin ([1]; day 17 vs day 1): approximately 25%
- decrease of AUC0–∞ with coadministration of rifampin ([1]; day 17 vs day 1): ~35%
- increase of CL with coadministration of rifampin ([1]; day 17 vs day 1): approximately 50%
- Ratio of geometric mean AUC0–t, day 17/day 1 [1, 6]: 67.9%
- Ratio of geometric mean Cmax, day 17/day 1 [1, 6]: 106.5%
- AUC(0-inf) [1, 7]: 5.38 µg·h/mL
- clearance [1, 7]: 0.192 ± 0.036 L/h/kg
- half-life [1, 7]: 15 ± 2 h
- Vd [1, 7]: 2.85 ± 0.29 L/kg
- AUC(0-t) ([1]; human, plasma, intravenous, 1 mg/kg, day 1, eravacycline alone, read-out: AUC0–t (distribution, as worded in the text)): 4.1 µg·h/mL
- AUC(0-inf) [1, 8]: 3.52 µg·h/mL
- clearance [1, 8]: 0.296 ± 0.0648 L/h/kg
- half-life [1, 8]: 11 ± 2.3 h
- Vd [1, 8]: 2.49 ± 0.51 L/kg
- Cmax ([1]; human, plasma, day 1, eravacycline 1 mg/kg i.v. alone, mean ± SD): 1.17 µg/mL
- Cmax ([1]; human, plasma, day 17, eravacycline 1 mg/kg i.v. with rifampin 600 mg daily day 8 to 17, mean ± SD): 1.26 µg/mL
- clearance [2, 9]: 228 ± 13.8 mL/min
- half-life [2, 9]: 18.2 ± 5 h
- MRT inf ([2]; human, iv, 60 mg, geometric mean (%CV), n = 2, read-out: MRT0-∞): 15.9 ± 8.9 h
- CL renal ([2]; human, iv, 60 mg, geometric mean (%CV), n = 5): 41.9 ± 16.6 mL/min
- Tmax ([2]; male, human, iv, 60 mg): 0.55 to 1 h
- AUC(0-inf) ([2]; male, human, iv, 60 mg, geometric mean (%CV), n = 2): 4.38 µg·h/mL
- Cmax ([2]; male, human, iv, 60 mg, geometric mean (%CV), n = 5, read-out: Cmax): 1.1 µg/mL
- Vd ([2]; male, human, iv, 60 mg, geometric mean (%CV), n = 2, read-out: Vss (volume of distribution)): 217 ± 4.9 L
- time postdose plasma concentrations were quantifiable [2]: approximately 73 h
- subjects who experienced an AE ([3]; eravacycline i.v. plus itraconazole treatment period, 1 of 10 subjects): 10.0%
- subjects who experienced an AE ([3]; eravacycline i.v. treatment period, 1 of 12 subjects): 8.3%
- serious AEs or discontinuations for AEs related to study drug ([3]; itraconazole study): No serious AEs
- AUC0–12 [4]: 6,309 ng·h/ml
- clearance (CL) [4]: 0.16 L/h/kg
- mean peak plasma concentration (Cmax) [4]: 1,825 ng/ml
- volume of distribution at steady state (Vss) [4]: 4.0 L/kg
- AUC(0-t) [5]: 3.09 µg·h/mL

Source: PMC6395926, “Mass Balance and Drug Interaction Potential of Intravenous Eravacycline Administered to Healthy Subjects” (Antimicrobial Agents and Chemotherapy, 2019)
